Here are results for three compounds from ChEMBL document CHEMBL1127276, “Chemical and plasma hydrolyses of a diphenyl -aminomethyl phosphonate prodrug inhibitor of neutral endopeptidase 24.11” (Bioorg Med Chem Lett, 1994).

As usually defined, the half-life is the time in which the quantity being followed falls by half.

A short description of series [1]: In vitro half life at 1.5 -5.6ug/mL, 37 degree C in monkey plasma. The series is classed as ADME, cell-free. The note with it: cercopithecidae.
Series [2] can be described thus: Half life at a pH 12.01 in […] medium. Type of series: ADME.
The nature of series [3]: Half life at a pH 13.65 in KOH medium. Type of series: ADME.
Series [4] is described as follows: In vitro half life at 1.5 -5.6ug/mL, 37 degree C in dog plasma. The series is classed as ADME, Canis lupus familiaris.
Series [5] can be described thus: In vitro half life at 1.5 -5.6ug/mL, 37 degree C in human plasma. Type of series: ADME, cell-free.
Series [6] can be described thus: Half life at a pH 8.78 in KHCO3 medium. Type of series: ADME.
A short description of series [7]: Half life at a pH 8.5 in Na2HPO4/NaH2PO4 medium. Type of series: ADME.
The nature of series [8]: Half life at a pH 8.44 in NaHCO3 medium. Type of series: ADME.
Series [9] can be described thus: In vitro half life at 1.5 -5.6ug/mL, 37 degree C in rat plasma. The series is classed as ADME.
A short description of series [10]: Ionization constant in basic (NH2+) medium. The series is classed as physicochemical. The note with it: read-out: pKa4.
Series [11] in a line: Ionization constant in slightly acidic(POH) medium. Type of series: physicochemical. The note with it: read-out: pKa3.
The nature of series [12]: Ionization constant in acidic (COOH)medium. Type of series: physicochemical. The note with it: read-out: pKa2.

The structures appear in SMILES notation. A value given as a limit tells only on which side of the number the result lay.

As to `O=C(O)CCNC(=O)[C@H](Cc1ccc(-c2ccccc2)cc1)NCP(=O)(Oc1ccccc1)Oc1ccccc1`, the half-life is 4.7 h in [1]; less than 0.167 h in series [2]; less than 5 min in series [3]; 13 h in series [4]; 1.4 h in [5]; 8.19 h in series [6]. The half-life is more than 96 h in [7], 8.68 h in [8] and 2.5 h in [9].
As to `O=C(O)CCNC(=O)[C@H](Cc1ccc(-c2ccccc2)cc1)NCP(=O)(O)O`, the results for the pKa in series [10], in series [11] and in series [12] were 10, 7.8 and 5.5, respectively.
In the case of `O=C(O)CCNC(=O)[C@H](Cc1ccc(-c2ccccc2)cc1)NCP(=O)(O)Oc1ccccc1`, the half-life in [1] is more than 7.8 h; in series [2] it was more than 0.1 h; in series [3], more than 6 min; in [4] it was 38 h; in [5] it was 4.2 h; in [6] it was 0.51 h. Further, the half-life in series [7] was more than 6 h; in series [8], 0.55 h; in [9], 9.4 h. Moreover, the figures for the pKa in series [10] and in series [12] were 10 and 5.8, respectively.
